Measured values reported in patent publication US20210322509A1, “Methods for Reducing Perinatal Morbidity and / or Mortality” (CHU SAINTE-JUSTINE, priority 2016, published 2021).
Non-standard residues stand in square brackets, D forms with d. Residues, ends and D or L forms follow the SMILES beside them. ξ: configuration not given here. dThr(3ξ) = CC(O)[C@@H](N)C(=O)O

Assays:
[1] = test system: IL-1β, IL-6, IL-8 and PGF2α in fetal brain tissue; assay: ELISA of pro-inflammatory mediators in brain of neonates; type: in vivo, mice; conditions: neonates from IL-1β-treated dams
Description: FIGS. 8A to 8D show the levels of the pro-inflammatory mediators IL-1β (FIG. 8A), IL-6 (FIG. 8B), IL-8 (FIG. 8C) and PGF2a (FIG. 8D) in fetal brain tissue of neonates from sham and IL-1β-treated dams administered with vehicle, Compound 1 or Kineret, as assessed by ELISA. One-way ANOVA compared to IL-1β+Veh. *p<0.05, **p<0.01, ***p<0.001. n=4 pups in each groups.
(§1) Murine ELISA assays. The ELISA assay was performed using mouse Quantikine™ ELISA kits against IL-1β or IL-6 (R&D Systems®; #MLBOOC, M6000B), IL-8 and PGF2α (MyBioSource®; #MBS261967, #MBS264160) according to the manufacturer's instructions. Briefly, tissues (lungs, intestines and brains) collected at birth were homogenized in RIPA buffer containing proteases and 50 μL of either lung, intestine, or brain samples, recombinant mouse IL-1β, IL-6, IL-8 or PGF2α positive control or decreasing concentrations of a recombinant mouse IL-1β, IL-6, IL-8 or PGF2α standard were loaded into a 96-well plate pre-coated with a monoclonal anti-mouse IL-1β antibody and incubated for 2 hours at ambient temperature. Wells were washed 5 times and incubated with an enzyme-linked mouse polyclonal antibody specific to murine IL-1β for 2 hours. After another washing step, a substrate solution was added. The enzymatic reaction was stopped after 30 minutes and the plate was read at 450 nm, with wavelength correction set to 570 nm.

[2] = test system: intestines of pups from IL-1β-treated dams; assay: Histology of ileum and colon (crypts, resident lymph nodes); type: in vivo, mice; conditions: for atrophies in intestinal crypts of the ileum: histology; for number of resident lymph nodes in the colon / size of resident lymph nodes in the colon: relative to vehicle
Description: FIG. 6A to 6D show representative histological analyses of the ileum of neonates from sham (FIG. 6A) and IL-1β-treated dams administered with vehicle (FIG. 6B), Compound 1 (FIG. 6C) or Kineret (FIG. 6D). Arrows indicate crypts. Scale, […].
FIGS. 7A and 7B show the number and size, respectively, of resident lymph nodes in the colon of neonates from sham and IL-1β-treated dams administered with vehicle, Compound 1 or Kineret. Sham (n=6 pups), IL-1β (n=3 pups), IL-1β+Compound 1 (n=6 pups), IL-1β+Kin (n=8 pups).
(§2) Histology. Intestines (from ileum to rectum) and lungs of post-term (PT) 15 mice were collected and fixed in 10% formalin during >48 h and were coated in paraffin. Samples were cut with a microtome (thickness=[…]) and mounted on lamella. Intestines were colored using hematoxylin-phloxine-saffron (HPS), whereas lungs were colored using H&E. Images were taken with a slidescanner (Axioscan®). Quantification of images was performed under blind evaluation of groups using Zen2 software.
Potential damages to the ileum and in the colon were evaluated by histologic analyses. In the ileum, pups from IL-1β-treated dams administered with vehicle had consistent atrophies in their intestinal crypts (FIG. 6B), and this was not observed following administration of compound 1 (FIG. 6C) or Kineret® (FIG. 6D). In the colon, the number of resident lymph nodes per cm, and their size, were measured. Since lymph nodes are part of the innate immunity and play an important role in the immune surveillance of the colon, the number and size of resident lymph nodes is a marker of the immune integrity/health of the intestine.

[3] = test system: timed-pregnant CD-1 mice exposed to IL-1β; assay: Intrauterine IL-1β-induced perinatal inflammation model: neonatal survival and fetal growth; type: in vivo; conditions: for neonatal survival at birth: pups from IL-1β-treated dams (1 μg i.u., G16.5), compound 1 1 mg/Kg/12 h or Kineret 4 mg/Kg/12 h s.c., relative to vehicle
Description: Timed-pregnant CD-1 mice were exposed to 1 μg of IL-1β at 16.5 days of gestation (G16.5). Compound 1 (Cmpd 1), Kineret or vehicle was injected subcutaneously in the neck skin 30 minutes before stimulation with IL-1β, and mice delivery was assessed every hour until term (G19-G19.5).
One-way ANOVA compared to IL-1β+Veh. ***p<0.001. Control (n=9), sham (n=7), IL-1β (n=26), IL-1β+Compound 1 (n=22), IL-1β+Kin (n=11).
Intrauterine […] perinatal inflammation model. Timed-pregnant CD-1 mice at 16.5 days of gestation were steadily anesthetized with an isoflurane mask. After body hair removal from the peritoneal area, a 1.5 cm-tall median incision was performed with surgical scissors in the lower abdominal wall. The lower segment of the right uterine horn was then exposed and 1 μg of IL-1β was injected between two fetal membranes with care of not entering the amniotic cavity. The abdominal muscle layer was sutured and the skin closed with clips. One hundred μL of Compound 1 (1 mg/Kg/12 h), Kineret® (4 mg/Kg/12 h) or vehicle (sterile water) was injected subcutaneously in the neck 30 minutes before stimulation with IL-1β (to allow distribution of drugs to target tissues). Mice delivery was assessed every hour until term (G19-G19.5). Immediately after delivery, neonatal survival was assessed. Some pregnant mice were sacrificed before birth (24 h after the surgery) to either 1) perform caesarean section and photograph fetuses; 2) collect amniotic fluids; and 3) collect placentas. Only tissues and fluids from gestational sacs closer to the cervical end of the uterus were collected to ensure proximity with the IL-1β injection site. Tissues and fluids were snap-frozen in liquid nitrogen and kept at −80° C. for subsequent RNA purification or protein quantification by ELISA.

[4] = test system: IL-1β, IL-6, IL-8 and PGF2α in neonatal lungs; assay: ELISA of pro-inflammatory mediators in lungs of neonates; type: in vivo, mice; conditions: neonates from IL-1β-treated dams; tissue collected at birth
Description: FIGS. 3A to 3D show the levels of the pro-inflammatory mediators IL-1p (FIG. 3A), IL-6 (FIG. 3B), IL-8 (FIG. 3C) and PGF2a (FIG. 3D) in the lungs of neonates from sham and IL-1β-treated dams administered with vehicle, Compound 1 or Kineret, as assessed by ELISA. One-way ANOVA compared to IL-1β+Veh. *p<0.05, **p<0.01. n=4 pups in each groups.
as §1

[5] = test system: lungs of pups from IL-1β-treated dams; assay: Lung histology (alveoli count, architecture) at PT15; type: in vivo, mice; conditions: for damages to lung architecture caused by IL-1β: histology
Description: One-way ANOVA compared to IL-1β+Veh. *p<0.05, ***p<0.001. Sham (n=6 pups), IL-1β (n=3 pups), IL-1β+Compound 1 (n=6 pups), IL-1β+Kin (n=8 pups).
as §2
The effect of gestational inflammation on the development of the exposed fetuses was studied. At post-term day (PT) 15, the pups from IL-1β-treated dams were sacrificed, and histological analysis of major organs known to be affected by prematurity/gestational inflammation (the lung, the intestines and the brain) was performed. For the lung, a blind count of alveoli was performed using ImageJ.

Molecule	increased IL-1β and IL-6 levels in the brain [1]	increased IL-8 levels in the brain [1]	atrophies in intestinal crypts of the ileum [2]	number of resident lymph nodes in the colon [2]	size of resident lymph nodes in the colon [2]	IL-1β-induced growth arrest of fetuses ([3]; caesarean section of dams after 24 h exposition to intrauterine IL-1β)	neonatal survival at birth [3]	reducing neonatal death, inflammation and inflammation-mediated damages in neonatal organs, compared with Kineret ([3]; summary statement)	levels of all cytokines tested (IL-1β, IL-6, IL-8, PGF2α) in neonatal lungs [4]	damages to lung architecture caused by IL-1β [5]	alveoli count per mm^2 ([5]; pups from IL-1β-treated dams)	number of alveoli per mm^2 compared with Kineret-treated group ([5]; pups from IL-1β-treated dams)
CC(C)C[C@@H](NC(=O)[C@@H](CCC(=O)O)NC(=O)[C@H](NC(=O)[C@H](NC(=O)[C@@H](Cc1ccc(O)cc1)NC(=O)[C@H](N)CCCNC(=N)N)C(C)O)C(C)C)C(=O)N[C@H](C)C(N)=O (stereo partly drawn) [compound 1] (H-[dR][dY][dThr(3ξ)][dV][dE][dL][dA]-NH2)	alleviated this effect	alleviated this effect	not observed	prevented	prevented	prevents this detrimental effect	significantly increased neonatal survival	significantly more effective	significant reduction	prevents the damages to lung architecture	completely restored the alveoli count	significantly higher
Kineret: recombinant form of the human interleukin-1 receptor antagonist (IL-1Ra), purchased from Swedish Orphan Biovitrum AB	ineffective at significantly reducing	although significant, was weaker than that obtained with compound 1	not observed	not increased at statistically significant levels	significant increase	–	but not Kineret®, significantly increased neonatal survival	–	only effective at significantly decreasing lung IL-1β levels	a more modest effect	only partially restored the alveoli count	–
